In patent US12076411B2, “Anti-HER2 antibody-maytansine conjugates and methods of use thereof” (priority 2014, dated 2024):

Tests used:
NCI-N87 cells [1] = experiment: In vitro cytotoxicity, 6 d, Cell Titer-Glo (Example 5); format: cell-based; details: Homo sapiens, 144 h; NCI-N87, 6 d
Protocol: The HER2-positive gastric carcinoma cell line, NCI-N87, was obtained from ATCC and maintained in RPMI-1640 medium (Cellgro) supplemented with 10% fetal bovine serum (Invitrogen) and Glutamax (Invitrogen). 24 h prior to plating, cells were passaged to ensure log-phase growth. On the day of plating, 5000 cells/well were seeded onto 96-well plates in 90 μL normal growth medium supplemented with 10 IU penicillin and 10 μg/mL streptomycin (Cellgro). […] After 6 d, 100 μL/well of Cell Titer-Glo reagent (Promega) was added, and luminescence was measured using a Molecular Devices SpectraMax M5 plate reader. GraphPad Prism software was used for data analysis.

NCI-N87 cells [2] = experiment: In vitro cytotoxicity, 6 day assay, Cell Titer-Glo (Example 1); details: Homo sapiens, NCI-N87, 144 h
Protocol: (§1) NCI-N87 cells, which overexpress HER2, were used as targets for in vitro cytotoxicity in a 6 day assay.
24 h prior to plating, cells were passaged to ensure log-phase growth. On the day of plating, 5000 cells/well were seeded onto 96-well plates in 90 μL normal growth medium supplemented with 10 IU penicillin and 10 μg/mL streptomycin (Cellgro). Cells were treated at various concentrations with 10 μL of diluted analytes, and the plates were incubated at 37° C. in an atmosphere of 5% CO2. After 6 d, 100 μL/well of Cell Titer-Glo reagent (Promega, Madison, WI) was added, and luminescence was measured using a Molecular Devices SpectraMax M5 plate reader. GraphPad Prism software was used for data analysis, including IC50 calculations.

NCI-N87 cells [3] = experiment: In vitro cytotoxicity, 6 day assay, Cell Titer-Glo (Example 2); format: cell-based; details: Homo sapiens, 144 h; NCI-N87, 6 day assay; antibody concentrations except for the free drug
Protocol: as §1
The HER2-positive breast carcinoma cell line, NCI-N87, was obtained from ATCC and maintained in RPMI-1640 medium (Cellgro) supplemented with 10% fetal bovine serum (Invitrogen) and Glutamax (Invitrogen). 24 h prior to plating, cells were passaged to ensure log-phase growth. On the day of plating, 5000 cells/well were seeded onto 96-well plates in 90 μL normal growth medium supplemented with 10 IU penicillin and 10 μg/mL streptomycin (Cellgro). Cells were treated at various concentrations with 10 μL of diluted analytes, and the plates were incubated at 37° C. in an atmosphere of 5% CO2. After 6 d, 100 μL/well of Cell Titer-Glo reagent (Promega) was added, and luminescence was measured using a Molecular Devices SpectraMax M5 plate reader. GraphPad Prism software was used for data analysis, including IC50 calculations.

Q: `COc1cc2cc(c1Cl)N(C)C(=O)C[C@H](OC(=O)[C@H](C)N(C)C(C)=O)[C@]1(C)O[C@H]1[C@H](C)[C@@H]1C[C@@](O)(NC(=O)O1)[C@H](OC)/C=C/C=C(\C)C2` [free maytansine, maytansine] was tested. Which IC50 (NCI-N87 cells [1]) did it give?
A: 0.35 nM

Q: And the IC50 (NCI-N87 cells [2])?
A: 0.214 nM

Q: And the IC50 (NCI-N87 cells [3])?
A: 0.25 nM
